The test deals with Glycogen synthase kinase-3 beta (Homo sapiens, UniProt P49841). As to the kind of experiment: Binding affinity to recombinant GSK3beta (unknown origin) assessed as dissociation rate constant upto 0.00975 uM by SPR analysis.

Usually koff stands for a measure of how fast the partners let go of each other.

Chain of Glycogen synthase kinase-3 beta (P49841 whole entry): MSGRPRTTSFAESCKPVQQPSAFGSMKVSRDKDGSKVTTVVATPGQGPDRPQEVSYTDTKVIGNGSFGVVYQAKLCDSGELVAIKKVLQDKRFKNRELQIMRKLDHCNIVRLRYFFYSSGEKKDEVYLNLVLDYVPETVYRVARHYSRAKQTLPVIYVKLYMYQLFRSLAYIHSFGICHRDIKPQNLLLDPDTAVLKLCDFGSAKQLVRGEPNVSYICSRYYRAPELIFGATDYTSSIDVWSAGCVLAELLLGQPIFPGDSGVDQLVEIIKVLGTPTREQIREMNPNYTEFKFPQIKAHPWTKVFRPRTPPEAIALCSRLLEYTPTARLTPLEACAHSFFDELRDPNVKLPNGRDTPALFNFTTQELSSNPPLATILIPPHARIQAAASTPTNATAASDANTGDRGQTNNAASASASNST

As for `Nc1ncc(-c2ccc(S(=O)(=O)N3CCN(CCCCc4cn(CCOCCOCCOCCOCCOCCNc5cccc6c5C(=O)N(C5CCC(=O)NC5=O)C6=O)nn4)CC3)cc2)nc1C(=O)Nc1cccnc1` (stereo unspecified), the koff was 0.0253 s⁻¹.

The record behind these values is BindingDB's records for doi:10.1016/j.ejmech.2021.113889 (China Pharmaceutical University, 2021).
